Measured values: ChEMBL document CHEMBL1201862, “PubChem BioAssay data set” (2004)
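Interpolation was linear, between the two tested concentrations surrounding the appropriate level; five concentrations were tested over 48 hours in 96-well plates. GI50: concentration for 50% inhibition of growth.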 Active and inactive are the calls of the source. No stated cut-off is given here; in the data, active = GI50 up to about 1.1 µM and inactive = higher.

How the values were obtained:
Test in all cases: inhibition of tumour cell growth, NCI panel, 48 h
[1] = test system: 786-0
[2] = test system: A498
[3] = test system: A549
[4] = test system: ACHN
[5] = test system: BT-549
[6] = test system: CAKI-1
[7] = test system: CCRF-CEM
[8] = test system: COLO 205
[9] = test system: DU-145
[10] = test system: EKVX
[11] = test system: HCC 2998
[12] = test system: HCT-116
[13] = test system: HCT-15
[14] = test system: HL-60
[15] = test system: HOP-62
[16] = test system: HOP-92
[17] = test system: HT-29
[18] = test system: Hs-578T
[19] = test system: IGROV-1
[20] = test system: K562
[21] = test system: KM12
[22] = test system: LOX IMVI
[23] = test system: M14
[24] = test system: MCF7
[25] = test system: MDA-MB-231
[26] = test system: MDA-MB-435
[27] = test system: MDA-N
[28] = test system: MOLT-4
[29] = test system: Malme-3M
[30] = test system: NCI-H226
[31] = test system: NCI-H23
[32] = test system: NCI-H460
[33] = test system: NCI-H522
[34] = test system: NCI/ADR-RES
[35] = test system: OVCAR-3
[36] = test system: OVCAR-4
[37] = test system: OVCAR-5
[38] = test system: OVCAR-8
[39] = test system: PC-3
[40] = test system: RPMI-8226
[41] = test system: SF-268
[42] = test system: SF-295
[43] = test system: SF-539
[44] = test system: SK-MEL-28
[45] = test system: SK-MEL-2
[46] = test system: SK-MEL-5
[47] = test system: SK-OV-3
[48] = test system: SN12C
[49] = test system: SNB-19
[50] = test system: SNB-75
[51] = test system: SR
[52] = test system: SW-620
[53] = test system: T47D
[54] = test system: TK-10
[55] = test system: U-251
[56] = test system: UACC-257
[57] = test system: UACC-62
[58] = test system: UO-31
[59] = test system: RXF 393

`CC(C)(C)c1cc(O)ccc1O` [E319] was tested, and the GI50 [1] was > 54.8 µM (inactive), the GI50 [2] was > 100 µM (inactive) and the GI50 [3] was > 100 µM (inactive). For the same molecule, the GI50 [4] was > 85.5 µM (inactive), the GI50 [5] was > 100 µM (inactive) and the GI50 [6] was > 57.8 µM (inactive). The GI50 [7] was 4.92 µM (inactive), the GI50 [8] was > 74.6 µM (inactive) and the GI50 [9] was 10.1 µM (inactive). For the same molecule, the GI50 [10] was > 100 µM (inactive), the GI50 [11] was > 10.5 µM (inactive) and the GI50 [12] was > 57.9 µM (inactive). The GI50 [13] was over 100 µM, the GI50 [14] was 9.73 µM (inactive) and the GI50 [15] was > 100 µM (inactive). For the same molecule, the GI50 [16] was > 67.5 µM (inactive), the GI50 [17] was > 100 µM (inactive) and the GI50 [18] was > 24 µM (inactive). For the same molecule, the GI50 [19] was > 100 µM (inactive), the GI50 [20] was > 68.5 µM (inactive) and the GI50 [21] was > 100 µM (inactive). For the same molecule, the GI50 [22] was > 59.3 µM (inactive), the GI50 [23] was > 100 µM (inactive) and the GI50 [24] was > 100 µM (inactive). For the same molecule, the GI50 [25] was 1.86 µM (inactive), the GI50 [26] was > 56.8 µM (inactive) and the GI50 [27] was > 100 µM (inactive). The GI50 [28] was 10.3 µM (inactive), the GI50 [29] was > 19.3 µM (inactive) and the GI50 [30] was > 65.5 µM (inactive). For the same molecule, the GI50 [31] was > 100 µM (inactive), the GI50 [32] was > 12.8 µM (inactive) and the GI50 [33] was 5.57 µM (inactive). The GI50 [34] was > 79.6 µM (inactive), the GI50 [35] was 43.6 µM (inactive) and the GI50 [36] was > 56.4 µM (inactive). For the same molecule, the GI50 [37] was > 100 µM (inactive), the GI50 [38] was > 63.7 µM (inactive) and the GI50 [39] was 1.57 µM (inactive). The GI50 [40] was 38.2 µM (inactive), the GI50 [41] was > 18.7 µM (inactive) and the GI50 [42] was > 100 µM (inactive). For the same molecule, the GI50 [43] was > 100 µM (inactive), the GI50 [44] was > 100 µM (inactive) and the GI50 [45] was 1.71 µM (inactive). For the same molecule, the GI50 [46] was > 100 µM (inactive), the GI50 [47] was > 100 µM (inactive) and the GI50 [48] was > 100 µM (inactive). The GI50 [49] was > 100 µM (inactive), the GI50 [50] was 7.71 µM (inactive) and the GI50 [51] was 1.1 µM (active). The GI50 [52] was 37.8 µM (inactive), the GI50 [53] was 3.83 µM (inactive) and the GI50 [54] was 8.32 µM (inactive). For the same molecule, the GI50 [55] was 0.675 µM (active), the GI50 [56] was 9.08 µM (inactive) and the GI50 [57] was > 100 µM (inactive). The GI50 [58] was > 58.6 µM (inactive).
For `CCOC(=O)C1CCCC1S(=O)(=O)c1ccc(C)cc1` (centres undefined), the GI50 [1] was > 100 µM (inactive), the GI50 [2] was 45.3 µM (inactive) and the GI50 [3] was > 100 µM (inactive). The GI50 [4] was > 100 µM (inactive), the GI50 [5] was > 100 µM (inactive) and the GI50 [6] was > 100 µM (inactive). For the same molecule, the GI50 [7] was > 100 µM (inactive), the GI50 [8] was > 100 µM (inactive) and the GI50 [9] was > 100 µM (inactive). The GI50 [10] was > 100 µM (inactive), the GI50 [11] was > 100 µM (inactive) and the GI50 [12] was > 100 µM (inactive). The GI50 [13] was over 100 µM, the GI50 [14] was > 100 µM (inactive) and the GI50 [15] was > 100 µM (inactive). For the same molecule, the GI50 [16] was > 100 µM (inactive), the GI50 [17] was > 100 µM (inactive) and the GI50 [18] was > 100 µM (inactive). The GI50 [19] was > 100 µM (inactive), the GI50 [20] was > 100 µM (inactive) and the GI50 [21] was > 100 µM (inactive). The GI50 [22] was > 100 µM (inactive), the GI50 [23] was > 100 µM (inactive) and the GI50 [24] was > 100 µM (inactive). For the same molecule, the GI50 [25] was > 100 µM (inactive), the GI50 [26] was 79.4 µM (inactive) and the GI50 [27] was > 100 µM (inactive). For the same molecule, the GI50 [28] was > 100 µM (inactive), the GI50 [29] was > 100 µM (inactive) and the GI50 [30] was > 100 µM (inactive). The GI50 [31] was > 100 µM (inactive), the GI50 [32] was > 100 µM (inactive) and the GI50 [33] was > 100 µM (inactive). For the same molecule, the GI50 [34] was > 100 µM (inactive), the GI50 [35] was > 100 µM (inactive) and the GI50 [36] was > 100 µM (inactive). The GI50 [37] was > 100 µM (inactive), the GI50 [38] was > 100 µM (inactive) and the GI50 [39] was > 100 µM (inactive). The GI50 [40] was > 100 µM (inactive), the GI50 [59] was > 100 µM (inactive) and the GI50 [41] was > 100 µM (inactive). For the same molecule, the GI50 [42] was > 100 µM (inactive), the GI50 [44] was > 100 µM (inactive) and the GI50 [46] was > 100 µM (inactive). For the same molecule, the GI50 [47] was > 100 µM (inactive), the GI50 [48] was > 100 µM (inactive) and the GI50 [49] was > 100 µM (inactive). For the same molecule, the GI50 [50] was 84.1 µM (inactive), the GI50 [51] was > 100 µM (inactive) and the GI50 [52] was > 100 µM (inactive). The GI50 [53] was > 100 µM (inactive), the GI50 [54] was > 100 µM (inactive) and the GI50 [55] was > 100 µM (inactive). The GI50 [57] was > 100 µM (inactive) and the GI50 [58] was > 100 µM (inactive).
